Measurements as given in patent US20230135093A1, “TRIAZOLYL DERIVATIVES AS GABA A ALPHA5 PAM” (Hoffmann-La Roche Inc., priority 2020, published 2023).

What was measured:
h-GABA-A α5β3γ2 [1] = target: T1, h-GABA-A α5β3γ2 (Homo sapiens, UniProt P18507+P31644); assay: Two-electrode voltage clamp electrophysiology in Xenopus oocytes expressing GABAA receptors (modulation of GABA EC20 current); assay type: cell-based
T1 construct: expressed in transfected cells; host or cells: Xenopus laevis oocytes, micro-injected with subunit RNA
Procedure, shortened: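 Oocytes injected with α5β3γ2 subunit RNA, recorded 3-5 days later by two-electrode clamp at −80 mV, room temperature, pH 7.4. The compound, at ~30-fold its Ki, was co-applied during a second GABA EC20 pulse. Efficacy was the extremum of the point-by-point second/first current ratio, given as % modulation (100×(fold−1)); n≥3 oocytes.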

h-GABA-A α5β3γ2 [2] = target: T1, h-GABA-A α5β3γ2; assay: [3H]flumazenil competition binding assay on membranes of HEK293 cells expressing GABAA receptors
Procedure, shortened: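 Membranes from HEK293 cells transiently expressing human α5β3γ2 were incubated 1 h at 4 °C in Krebs-tris pH 7.5 with 0.5 nM [3H]flumazenil and test compound. Nonspecific binding was set with 10^−5 M diazepam. Bound radioactivity was filtered and counted. Ki is the mean of two determinations.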

[3] = Table 1, % modulation of GABA EC20 = 100*(Fold increase-1)
[4] = Table 1, Xenopus oocytes, GABA EC20, test compound at approximatively 30 fold its Ki
[5] = Table 1, displacement of [3H]-Flumazenil (0.5 nM), HEK293 cells expressing human receptors, means of two determinations
[6] = Table 2, reference compounds, % modulation of GABA EC20
[7] = Table 2, reference compounds, GABAA α5β3γ2 overexpressing oocytes, GABA EC20
[8] = Table 2, reference compounds, displacement of [3H]-Flumazenil

SMILES	Efficacy (GABA) % (h-GABA-A α5β3γ2 [1]; [3])	Fold increase h-GABA-A α5β3γ2 oocyte (h-GABA-A α5β3γ2 [1]; [4])	Ki (h-GABA-A α5β3γ2 [2]; [5])	Efficacy (GABA) % (h-GABA-A α5β3γ2 [1]; [6])	Fold increase h-GABA-A α5β3γ2 oocyte (h-GABA-A α5β3γ2 [1]; [7])	Ki (h-GABA-A α5β3γ2 [2]; [8])
CC(C)OC1CN(c2cnn(Cc3c(-c4ncc(C(F)(F)F)cn4)nnn3C)c(=O)c2)C1 [Example 116, 5-(3-isopropoxyazetidin-1-yl)-2-[[3-methyl-5-[5-(trifluoromethyl)pyrimidin-2-yl]triazol-4-yl]methyl]pyridazin-3-one]	48%	1.48	66.1 nM			
Cn1nnc(-c2ncc(C(F)(F)F)cn2)c1Cn1ncc(N2CC(OC3CCC3)C2)cc1=O [Example 117, 5-[3-(cyclo-butoxy)azetidin-1-yl]-2-[[3-methyl-5-[5-(trifluoromethyl)pyrimidin-2-yl]triazol-4-yl]methyl]pyridazin-3-one]	87%	1.87	52.7 nM			
COc1ncc(-c2cnn(Cc3c(-c4ncc(C(F)(F)F)cn4)nnn3C)c(=O)c2)cc1Cl [Example 118, 5-(5-chloro-6-methoxypyridin-3-yl)-2-((1-methyl-4-(5-(trifluoromethyl)pyrimidin-2-yl)-1H-1,2,3-triazol-5-yl)methyl)pyridazin-3(2H)-one]	135%	2.35	15.4 nM			
Cn1nnc(-c2ncc(C(F)(F)F)cn2)c1Cn1ncc(N2CC(OCC(F)F)C2)cc1=O [Example 119, 5-[3-(2,2-difluoro-ethoxy)azetidin-1-yl]-2-[[3-methyl-5-[5-(trifluoromethyl)pyrimidin-2-yl]triazol-4-yl]methyl]pyridazin-3-one]	86%	1.86	29.6 nM			
Cn1nnc(-c2ncc(C(F)(F)F)cn2)c1Cn1ncc(N2CC(OCC(F)(F)F)C2)cc1=O [Example 120, 2-[[3-methyl-5-[5-(trifluoromethyl)pyrimidin-2-yl]triazol-4-yl]methyl]-5-[3-(2,2,2-trifluoro-ethoxy)azetidin-1-yl]pyridazin-3-one]	78%	1.78	27 nM			
Cn1nnc(-c2ncc(C(F)(F)F)cn2)c1Cn1ncc(N2CC(OC(F)F)C2)cc1=O [Example 121, 5-[3-(difluoromethoxy)azetidin-1-yl]-2-[[3-methyl-5-[5-(trifluoromethyl)pyrimidin-2-yl]triazol-4-yl]methyl]pyridazin-3-one]	89%	1.89	24.8 nM			
CCn1nnc(-c2ccc(Cl)cc2F)c1Cn1ncc(N2CC3(CC[C@@H](C)CO3)C2)cc1=O [Example 122, (R)-2-((4-(4-chloro-2-fluorophenyl)-1-ethyl-1H-1,2,3-triazol-5-yl)methyl)-5-(7-methyl-5-oxa-2-azaspiro[3.5]nonan-2-yl)pyridazin-3(2H)-one]	141%	2.41	55.5 nM			
COc1ncc(-c2cnn(Cc3c(-c4ccc(C(F)(F)F)nn4)nnn3C)c(=O)c2)cc1Cl [Example 123, 5-(5-chloro-6-methoxypyridin-3-yl)-2-((1-methyl-4-(6-(trifluoro-methyl)pyridazin-3-yl)-1H-1,2,3-triazol-5-yl)methyl)pyridazin-3(2H)-one]	148%	2.48	7.6 nM			
CCn1nnc(-c2ccc(Cl)cc2F)c1Cn1ncc(N2CC3(CC[C@H](F)CO3)C2)cc1=O [Example 124, (S)-2-((4-(4-chloro-2-fluorophenyl)-1-ethyl-1H-1,2,3-triazol-5-yl)methyl)-5-(7-fluoro-5-oxa-2-azaspiro[3.5]nonan-2-yl)pyridazin-3(2H)-one]	105%	2.05	10.2 nM			
CCn1nnc(-c2ccc(Cl)cc2F)c1Cn1ncc(N2CC3(CC[C@@H](F)CO3)C2)cc1=O [Example 125, (R)-2-((4-(4-chloro-2-fluorophenyl)-1-ethyl-1H-1,2,3-triazol-5-yl)methyl)-5-(7-fluoro-5-oxa-2-azaspiro[3.5]nonan-2-yl)pyridazin-3(2H)-one]	69%	1.69	25.3 nM			
Cn1nnc(-c2ccc(Cl)cc2F)c1Cn1ncc(N2CC3(CC[C@H](F)CO3)C2)cc1=O [Example 126, (S)-2-((4-(4-chloro-2-fluorophenyl)-1-methyl-1H-1,2,3-triazol-5-yl)methyl)-5-(7-fluoro-5-oxa-2-azaspiro[3.5]nonan-2-yl)pyridazin-3(2H)-one]	61%	1.61	17.5 nM			
Cn1nnc(-c2ccccc2F)c1COc1ccc(-n2cnc(C(F)F)c2)nn1 [RO-007, reference compound]				−28%	0.72	58.4 nM
Cn1nnc(-c2ccc(F)cc2)c1COc1ccc(C(=O)NN2CCOCC2)nn1 [RO-045, reference compound]				−38%	0.62	53.2 nM
Cn1nnc(-c2ccc(F)cn2)c1COc1ccc(C(=O)NN2CCOCC2)nn1 [RO-052, reference compound]				−15%	0.85	33.4 nM
